Measured values reported in patent publication US9789153B2, “Composition for preventing cancer and treating cancer and intensifying the effects of other anticancer drugs” (priority 2014, dated 2017).

System: Cancer cells
Assay: MTT assay-A positive control group
Type: cell-based
Conditions: Triton X100 1%, positive control C2
Method: MTT (3-(4,5 dimethylthiazole-2-yl)-2,5-diphenyl tetrazolium bromide) is a proven cell viability indicator and this yellow colored tetrazolium salt gets reduced to purple colored formazan crystals by mitochondrial reductase enzyme seen only in metabolically active cells. It measures the cell proliferation rate and the reduction in cell viability when metabolic events lead to apoptosis or necrosis. Triplicate samples were analyzed and cell viability was calculated in percentage with respect to negative control group as follows Cell viability (%)=(Nt/Nc)×100 Nt is the absorbance of cells treated with sample and Nc is the absorbance of untreated cells (negative control group-Cell culture medium alone). The cell survival rate of negative control group is 100%. The results of MTT assays are shown in Figures, Wherein, the horizontal axis represents concentration of test sample and the vertical axis represents the cell survival rate. […]
Cancer cells were incubated for 2 days. […] Optical density of the solution was measured at a wavelength of 570 nm using a Beckmann Coulter Elisa plate reader (BioTek Power Wave XS). […]

Substance: Triton X100
- cells killed: more than 90%
